Experiments:
[1] = 298.15 K, 101 kPa, Liquid
[2] = an = ratio of the nth substance listed, in mol/kg; settings: 298.15 K, 101 kPa, Liquid; for speed of sound: Sing-around technique in a fixed-path interferometer; for mass density: Vibrating tube method

CC(=O)N(C)C [N,N-dimethylethanamide]
[1]
Settings	mass density	speed of sound [m/s]
Sing-around technique in a fixed-path interferometer	–	1455.4
Vibrating tube method	936.22 kg/m3 [middle of 9 runs]	–

[O-][Cl+3]([O-])([O-])[O-].[O-][Cl+3]([O-])([O-])[O-].[Zn+2] [zinc perchlorate] + CC(=O)N(C)C
[2]
Settings	mass density [kg/m3]	speed of sound [m/s]
a1 = 0.04286	945.119	1460.8
a1 = 0.08313	954.115	1464.9
a1 = 0.1231	963.055	1469
a1 = 0.1625	971.852	1473.2
a1 = 0.2013	980.513	1477.5
a1 = 0.2396	989.07	1481.9
a1 = 0.2771	997.457	1486.3
a1 = 0.3148	1005.87	1490.8

CC(=O)N(C)C [N,N-dimethylethanamide] + [O-][Cl+3]([O-])([O-])[O-].[O-][Cl+3]([O-])([O-])[O-].[Zn+2]
[2], a2 = 0
Settings	mass density [kg/m3]	speed of sound [m/s]
–	936.15	1455.4

[Co+2].[O-][Cl+3]([O-])([O-])[O-].[O-][Cl+3]([O-])([O-])[O-] [cobalt(II) perchlorate] + C[S+](C)[O-]
[2]
Settings	mass density [kg/m3]	speed of sound [m/s]
a1 = 0.0215	1099.78	1485.5
a1 = 0.03236	1102.1	1486.2
a1 = 0.04309	1104.4	1486.9
a1 = 0.05528	1107.03	1487.7
a1 = 0.06505	1109.14	1488.3
a1 = 0.08726	1113.97	1489.8
a1 = 0.1069	1118.27	1491
a1 = 0.1285	1123.03	1492.5
a1 = 0.148	1127.38	1493.7
a1 = 0.1695	1132.18	1495.2
a1 = 0.1911	1137.05	1496.6

C[S+](C)[O-] [dimethyl sulfoxide] + [Co+2].[O-][Cl+3]([O-])([O-])[O-].[O-][Cl+3]([O-])([O-])[O-]
[2], a2 = 0
Settings	mass density [kg/m3]	speed of sound [m/s]
–	1095.19	1484.1

CC(=O)N(C)C [N,N-dimethylethanamide] + [Cl][Co][Cl]
[2], a2 = 0
Settings	mass density [kg/m3]	speed of sound [m/s]
–	936.417	1455.4

C[S+](C)[O-] [dimethyl sulfoxide] + [Cl-].[Cl-].[Zn+2]
[2], a2 = 0
Settings	mass density [kg/m3]	speed of sound [m/s]
–	1095.2	1484.1

[Cl][Cu][Cl] [copper chloride] + C[S+](C)[O-]
[2]
Settings	mass density [kg/m3]	speed of sound [m/s]
a1 = 0.04097	1100.01	1485.3
a1 = 0.05136	1101.21	1485.5
a1 = 0.0616	1102.39	1485.8
a1 = 0.07134	1103.53	1486
a1 = 0.08195	1104.77	1486.2
a1 = 0.09202	1105.94	1486.4
a1 = 0.1022	1107.13	1486.6

CC(=O)N(C)C [N,N-dimethylethanamide] + [Cl][Mn][Cl]
[2], a2 = 0
Settings	mass density [kg/m3]	speed of sound [m/s]
–	936.233	1455.4

— the NIST ThermoML archive (doi:10.1021/je8004134)
